Assay results: PubChem BioAssay AID1963829 (Molecular Pharmacology Branch, DTP, NCI, 2024)

System: 935938-334-R-J1-PDC complex spheroid viability
Experiment: Anticancer human tumor 935938-334-R-J1-PDC patient-derived small intestine adenocarcinoma cell line growth inhibition [POLQ]
Details: for IC50: curve of first compound; for viability, T/C: stronger effect = lower value
In short: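 Complex spheroid viability model combining PDC tumour cells with endothelial (HUVEC) and MSC stromal cells. Novobiocin, ART-558 or RP6685 were tested singly and in combination with standard and investigational anticancer drugs. Each was titrated in half-log steps from near clinical Cmax, or from 10 microM where Cmax was unknown.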

[1] = second compound 0.0316 µM, first compound 0.0316 µM
[2] = second compound 0.0316 µM, first compound 0.1 µM
[3] = second compound 0.0316 µM, first compound 0.316 µM
[4] = second compound 0.0316 µM, first compound 1 µM
[5] = second compound 0.0316 µM, first compound 3.16 µM
[6] = second compound 0.0316 µM, first compound 10 µM
[7] = second compound 0.1 µM, first compound 0.0316 µM
[8] = second compound 0.1 µM, first compound 0.1 µM
[9] = second compound 0.1 µM, first compound 0.316 µM
[10] = second compound 0.1 µM, first compound 1 µM
[11] = second compound 0.1 µM, first compound 3.16 µM
[12] = second compound 0.1 µM, first compound 10 µM
[13] = second compound 0.316 µM, first compound 0.0316 µM
[14] = second compound 0.316 µM, first compound 0.1 µM
[15] = second compound 0.316 µM, first compound 0.316 µM
[16] = second compound 0.316 µM, first compound 1 µM
[17] = second compound 0.316 µM, first compound 3.16 µM
[18] = second compound 0.316 µM, first compound 10 µM
[19] = second compound 1 µM, first compound 0.0316 µM
[20] = second compound 1 µM, first compound 0.1 µM
[21] = second compound 1 µM, first compound 0.316 µM
[22] = second compound 1 µM, first compound 1 µM
[23] = second compound 1 µM, first compound 3.16 µM
[24] = second compound 1 µM, first compound 10 µM
[25] = second compound 3.16 µM, first compound 0.0316 µM
[26] = second compound 3.16 µM, first compound 0.1 µM
[27] = second compound 3.16 µM, first compound 0.316 µM
[28] = second compound 3.16 µM, first compound 1 µM
[29] = second compound 3.16 µM, first compound 3.16 µM
[30] = second compound 3.16 µM, first compound 10 µM
[31] = second compound 10 µM, first compound 0.0316 µM
[32] = second compound 10 µM, first compound 0.1 µM
[33] = second compound 10 µM, first compound 0.316 µM
[34] = second compound 10 µM, first compound 1 µM
[35] = second compound 10 µM, first compound 3.16 µM
[36] = second compound 10 µM, first compound 10 µM
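Further: spheroids exposed to drugs for seven days before viability read.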
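Wherever viability, T/C is given: 100% = DMSO vehicle control wells.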

## CC(C)n1c(=O)n(C)c2cnc3cc(F)c(-c4ccc(OCCCN5CCCCC5)nc4)cc3c21 + Nc1ccc(C#CCN(C(=O)Cc2ncc(C(F)(F)F)cc2C(F)(F)F)c2ccc(F)cc2)nn1
Second compound 0.0316 µM
  IC50: > 10000 nM
Second compound 0.1 µM
  IC50: > 10000 nM
Second compound 0.316 µM
  IC50: > 10000 nM
Second compound 1 µM
  IC50: > 10000 nM
Second compound 3.16 µM
  IC50: > 10000 nM
Second compound 10 µM
  IC50: > 10000 nM
[1]
  viability, T/C: 94.3%
[2]
  viability, T/C: 84.3%
[3]
  viability, T/C: 132%
[4]
  viability, T/C: 82.9%
[5]
  viability, T/C: 90.5%
[6]
  viability, T/C: 79.4%
[7]
  viability, T/C: 100%
[8]
  viability, T/C: 102%
[9]
  viability, T/C: 111%
[10]
  viability, T/C: 84.9%
[11]
  viability, T/C: 117%
[12]
  viability, T/C: 90.6%
[13]
  viability, T/C: 101%
[14]
  viability, T/C: 99.4%
[15]
  viability, T/C: 84.9%
[16]
  viability, T/C: 101%
[17]
  viability, T/C: 113%
[18]
  viability, T/C: 98.4%
[19]
  viability, T/C: 120%
[20]
  viability, T/C: 77.8%
[21]
  viability, T/C: 102%
[22]
  viability, T/C: 113%
[23]
  viability, T/C: 128%
[24]
  viability, T/C: 85.7%
[25]
  viability, T/C: 93.2%
[26]
  viability, T/C: 97.7%
[27]
  viability, T/C: 98.2%
[28]
  viability, T/C: 92.4%
[29]
  viability, T/C: 100%
[30]
  viability, T/C: 94.4%
[31]
  viability, T/C: 107%
[32]
  viability, T/C: 88.8%
[33]
  viability, T/C: 82.9%
[34]
  viability, T/C: 107%
[35]
  viability, T/C: 110%
[36]
  viability, T/C: 109%

## CC1COCCN1c1cc(-c2ccnn2C)c2ccnc(-c3ccn[nH]3)c2n1 (stereo unspecified) + Nc1ccc(C#CCN(C(=O)Cc2ncc(C(F)(F)F)cc2C(F)(F)F)c2ccc(F)cc2)nn1
Second compound 0.0316 µM
  IC50: 71.5 nM
Second compound 0.1 µM
  IC50: 85.6 nM
Second compound 0.316 µM
  IC50: 86.2 nM
Second compound 1 µM
  IC50: 83.8 nM
Second compound 3.16 µM
  IC50: 86.6 nM
Second compound 10 µM
  IC50: 91.5 nM
[1]
  viability, T/C: 92.4%
[2]
  viability, T/C: 32.2%
[3]
  viability, T/C: 19.1%
[4]
  viability, T/C: 15.3%
[5]
  viability, T/C: 14.8%
[6]
  viability, T/C: 17.6%
[7]
  viability, T/C: 89.4%
[8]
  viability, T/C: 43.9%
[9]
  viability, T/C: 18.5%
[10]
  viability, T/C: 13.6%
[11]
  viability, T/C: 21.2%
[12]
  viability, T/C: 19.4%
[13]
  viability, T/C: 117%
[14]
  viability, T/C: 40%
[15]
  viability, T/C: 17.4%
[16]
  viability, T/C: 13.3%
[17]
  viability, T/C: 18.7%
[18]
  viability, T/C: 22%
[19]
  viability, T/C: 103%
[20]
  viability, T/C: 40.2%
[21]
  viability, T/C: 20.2%
[22]
  viability, T/C: 16.3%
[23]
  viability, T/C: 16.8%
[24]
  viability, T/C: 21.2%
[25]
  viability, T/C: 91.7%
[26]
  viability, T/C: 44%
[27]
  viability, T/C: 15.5%
[28]
  viability, T/C: 16.1%
[29]
  viability, T/C: 19.2%
[30]
  viability, T/C: 27.6%
[31]
  viability, T/C: 93.4%
[32]
  viability, T/C: 46.3%
[33]
  viability, T/C: 19.4%
[34]
  viability, T/C: 18.4%
[35]
  viability, T/C: 19.3%
[36]
  viability, T/C: 21.1%

## CC1COCCN1c1cc(C2(S(C)(=N)=O)CC2)nc(-c2ccnc3[nH]ccc23)n1 (stereo unspecified) + Nc1ccc(C#CCN(C(=O)Cc2ncc(C(F)(F)F)cc2C(F)(F)F)c2ccc(F)cc2)nn1
Second compound 0.0316 µM
  IC50: 3830 nM
Second compound 0.1 µM
  IC50: 2330 nM
Second compound 0.316 µM
  IC50: 3220 nM
Second compound 1 µM
  IC50: 2480 nM
Second compound 3.16 µM
  IC50: 1900 nM
Second compound 10 µM
  IC50: 1810 nM
[1]
  viability, T/C: 105%
[2]
  viability, T/C: 83.7%
[3]
  viability, T/C: 97.7%
[4]
  viability, T/C: 76.1%
[5]
  viability, T/C: 58.7%
[6]
  viability, T/C: 15.2%
[7]
  viability, T/C: 104%
[8]
  viability, T/C: 117%
[9]
  viability, T/C: 91.8%
[10]
  viability, T/C: 91%
[11]
  viability, T/C: 35%
[12]
  viability, T/C: 16%
[13]
  viability, T/C: 83.9%
[14]
  viability, T/C: 96.8%
[15]
  viability, T/C: 96.7%
[16]
  viability, T/C: 82.8%
[17]
  viability, T/C: 50.9%
[18]
  viability, T/C: 14.2%
[19]
  viability, T/C: 118%
[20]
  viability, T/C: 98.6%
[21]
  viability, T/C: 94.2%
[22]
  viability, T/C: 78.2%
[23]
  viability, T/C: 38.8%
[24]
  viability, T/C: 22.6%
[25]
  viability, T/C: 93.5%
[26]
  viability, T/C: 93.2%
[27]
  viability, T/C: 108%
[28]
  viability, T/C: 70.5%
[29]
  viability, T/C: 34.1%
[30]
  viability, T/C: 17.9%
[31]
  viability, T/C: 106%
[32]
  viability, T/C: 111%
[33]
  viability, T/C: 137%
[34]
  viability, T/C: 75.3%
[35]
  viability, T/C: 36.8%
[36]
  viability, T/C: 16%
